Laboratory results from US20260083687A1, “COMPOUNDS FOR REDUCING LACTATION AND IMPROVING HEALTH” (AHV International B.V., priority 2022, published 2026).
Where two headings read alike, the source gives them in different places.

What was measured:
[1] = tested on: cows (Holstein Friesians); assay: Treatment with DPD analogs (organosulfur compounds) and milk yield (Example 8); format: in vivo, cow
Procedure: Study design. 36 cows (Holstein Friesians) from 2 farms were used. The feed of the cows was composed of TMR, including corn and grass silage, supplemented with soya and minerals. […] The cows were milked in a milk robot. […] The cows were milked twice a day. The cows were housed in free stables. […] Placebo treatment corresponded to administration of two gel capsules containing 180 ml water.
For this study dosages synthetic compounds (>96% purity) as indicated in table 17 were administered to cows. The objective of this study was to compare the activity of a corresponding dose of the compounds expressed in mol, based on the number of moles that is present in 80 ml di-n-propyl disulfide at 20° C. The number of moles was converted to ml or grams of the tested compounds. For this purpose, the molecular weight and specific density were used in the calculations. The compounds were formulated in the gel capsules as indicated in the previous examples.
Before the various dosages were administered, the milk yields were monitored for at least 5 days.

[2] = tested on: cows (Holstein Friesians); conditions: for Milk yield Last milking: before administration; for % reduction after 24 h / % reduction after 48 h / % reduction after 72 h / % reduction after 96 h: vs milk yield before treatment
Procedure: Twelve cows (Holstein Friesians) from 1 farm were used. The start of the dry period of every cow was between 40 to 60 days before calving. The cows were milked twice a day at fixed times and the cows were selected on a milk production of >12.5 litres/day 24 hours before PTSO administering took place. No extra measures were taken to stimulate dry-off, such as changes in feed ration or changes in milking frequency. The cows were milked twice a day. The cows were housed in free stables. A porcine gelatine capsule with PTSO or placebo gel capsule with water were administered 7 to 14 days before the start of the dry-off period.
For this study various dosages synthetic PTSO (>98% purity) were administered to cows with a milk yield of at least 12.5 kg milk per day. The following dosages were applied: 0, 10, 20, 40 ml of pure PTSO. For each dosage 3 cows were used.
Before the various dosages were administered the milk yield was monitored for 14 days. The gel capsules were orally administered by a bolus shooter, the gel capsule for the placebo group contained tap water. Administering of a capsule took place between the morning and afternoon milking. On t=14 days the PTSO-containing capsules and the placebo capsules were administered and the milk yield was monitored 48 hours more.

[3] = tested on: dairy cows; conditions: single injection 5.6 mg at dry-off, cited from earlier work
[4] = tested on: goats; conditions: single injection 5.6 mg at dry-off; cited from earlier work
[5] = tested on: cows; conditions: cited from earlier work
[6] = individual cows, dose per compound as listed in E284
[7] = vs milk yield before treatment, individual cows, dose per compound as listed in E284

CCCSS(=O)(=O)CCC [PTSO, di-n-propyl thiosulfonate]
% reduction after 24 h average (milk yield) ([1]; 24 h after one oral gel capsule, dose equimolar to 80 ml di-n-propyl disulfide, negative value = increase in yield): 61%
% reduction after 48 h average (milk yield) ([1]; 48 h after one oral gel capsule, dose equimolar to 80 ml di-n-propyl disulfide, negative value = increase in yield): 71%
% reduction after 72 h average (milk yield) ([1]; 72 h after one oral gel capsule, dose equimolar to 80 ml di-n-propyl disulfide, negative value = increase in yield): 41%
% reduction after 96 h average (milk yield) ([1]; 96 h after one oral gel capsule, dose equimolar to 80 ml di-n-propyl disulfide, negative value = increase in yield): 4.7%
average reduction after 24, 48 and 72 h (%) (milk yield) ([1]; average of 24, 48 and 72 h after one oral gel capsule, dose equimolar to 80 ml di-n-propyl disulfide): 58%
Average reduction after 24 and 48 h (%) (milk yield) ([1]; average of 24 and 48 h after one oral gel capsule, dose equimolar to 80 ml di-n-propyl disulfide): 66%
Milk yield (kg) Last milking ([1]; before administration, individual cows, single oral gel capsule dose per cow (ml unless g): diethyl disulfide 63, di-n-propyl disulfide 80, diisopropyl disulfide 160, di-n-butyl disulfide 100, dibenzyl disulfide 102, diethyl sulfide 55, di-n-propyl sulfide 72, diisopropyl sulfide 74, di-n-butyl sulfide 90, dibenzyl sulfide 96 g, diphenyl sulfide 85, di-n-propyl trisulfide 98, di-n-propyl sulfone 6): 15.7 kg
Average reduction after 24 and 48 h (%) [1, 6]: 66%
Milk yield (kg) After 24 h [1, 6]: 7.7 kg
Milk yield (kg) After 48 h [1, 6]: 4.6 kg
Milk yield (kg) After 72 h [1, 6]: 9.3 kg
Milk yield (kg) After 96 h [1, 6]: 14.5 kg
average reduction after 24, 48 and 72 h (%) [1, 6]: 58%
% reduction after 24 h [1, 7]: 61%
% reduction after 48 h [1, 7]: 71%
% reduction after 72 h [1, 7]: 41%
% reduction after 96 h [1, 7]: 4.7%
Average reduction 24 and 48 h (%) ([2]; 10 ml PTSO): −5%
Milk yield After 24 h ([2]; 10 ml PTSO): 19.89 kg
Milk yield After 48 h ([2]; 10 ml PTSO): 19.51 kg
Milk yield After 72 h ([2]; 10 ml PTSO): 18.94 kg
Milk yield After 96 h ([2]; 10 ml PTSO): 18.67 kg
Milk yield Last milking ([2]; 10 ml PTSO): 18.76 kg
% reduction after 24 h ([2]; 10 ml PTSO): −6%
% reduction after 48 h ([2]; 10 ml PTSO): −4%
% reduction after 72 h ([2]; 10 ml PTSO): −0.03%
% reduction after 96 h ([2]; 10 ml PTSO): 0.01%
Average reduction 24 and 48 h (%) ([2]; 20 ml PTSO): 66%
Milk yield After 24 h ([2]; 20 ml PTSO): 7.7 kg
Milk yield After 48 h ([2]; 20 ml PTSO): 4.56 kg
Milk yield After 72 h ([2]; 20 ml PTSO): 9.31 kg
Milk yield After 96 h ([2]; 20 ml PTSO): 14.99 kg
effect on milk yield compared to the milk yield before treatment ([2]; 20 ml PTSO): clear lowering on milk yield
Milk yield Last milking ([2]; 20 ml PTSO): 15.72 kg
% reduction after 24 h ([2]; 20 ml PTSO): 61%
% reduction after 48 h ([2]; 20 ml PTSO): 71%
% reduction after 72 h ([2]; 20 ml PTSO): 41%
% reduction after 96 h ([2]; 20 ml PTSO): 4.7%
Average reduction 24 and 48 h (%) ([2]; 40 ml PTSO): 55%
Milk yield After 24 h ([2]; 40 ml PTSO): 8.89 kg
Milk yield After 48 h ([2]; 40 ml PTSO): 7.04 kg
Milk yield After 72 h ([2]; 40 ml PTSO): 9.06 kg
Milk yield After 96 h ([2]; 40 ml PTSO): 15.87 kg
Milk yield Last milking ([2]; 40 ml PTSO): 16.77 kg
% reduction after 24 h ([2]; 40 ml PTSO): 52%
% reduction after 48 h ([2]; 40 ml PTSO): 58%
% reduction after 72 h ([2]; 40 ml PTSO): 46%
% reduction after 96 h ([2]; 40 ml PTSO): 5.4%
time to complete recovery of milk yield ([2]; after PTSO administration): 3 to 4 days
damage to the udder ([2]; bovine, in vivo): does not cause any damage to the udder
dosage at which the effect on milk yield became visible ([2]; single oral dose): ≥ 20 mL
dosage giving maximum response (milk yield decrease) ([2]; single oral dose): ≥ 20 mL

C=CCN1C[C@H](C(=O)N(CCCN(C)C)C(=O)NCC)C[C@@H]2c3cccc4[nH]cc(c34)C[C@H]21 [cabergoline]
duration of reduced prolactin after dry-off [3]: up to 8 days
milk reduction ([3]; dairy cows): 22%
milk reduction [4]: 28%

CCCN1CC(NS(=O)(=O)N(CC)CC)CC2Cc3c(O)cccc3CC21 (stereo not shown) [quinagolide]
lower milk production compared with the placebo group ([5]; 1 mg daily i.m. during 9 weeks, early lactation, last 4 weeks of treatment): 5.3 kg/day
Milk production ([5]; 4 mg i.m. twice a day from 5 days before until 13 days after dry-off, placebo 25 kg/day): 18 kg/day
decreased milk production compared with the placebo group ([5]; Ollier, Zhao and Lacasse (2014)): 7 L
